Source: article PMC4685925, “Exploring architectures displaying multimeric presentations of a trihydroxypiperidine iminosugar” (Beilstein Journal of Organic Chemistry, 2015)

Biological target: T1, amyloglucosidase (Aspergillus niger, UniProt P69328)
T1 construct: gene GLAA
Test: commercial glycosidase inhibition assay ([…] inhibition at […]; IC50 determined)
Format: biochemical

T1 sequence (P69328 25-640): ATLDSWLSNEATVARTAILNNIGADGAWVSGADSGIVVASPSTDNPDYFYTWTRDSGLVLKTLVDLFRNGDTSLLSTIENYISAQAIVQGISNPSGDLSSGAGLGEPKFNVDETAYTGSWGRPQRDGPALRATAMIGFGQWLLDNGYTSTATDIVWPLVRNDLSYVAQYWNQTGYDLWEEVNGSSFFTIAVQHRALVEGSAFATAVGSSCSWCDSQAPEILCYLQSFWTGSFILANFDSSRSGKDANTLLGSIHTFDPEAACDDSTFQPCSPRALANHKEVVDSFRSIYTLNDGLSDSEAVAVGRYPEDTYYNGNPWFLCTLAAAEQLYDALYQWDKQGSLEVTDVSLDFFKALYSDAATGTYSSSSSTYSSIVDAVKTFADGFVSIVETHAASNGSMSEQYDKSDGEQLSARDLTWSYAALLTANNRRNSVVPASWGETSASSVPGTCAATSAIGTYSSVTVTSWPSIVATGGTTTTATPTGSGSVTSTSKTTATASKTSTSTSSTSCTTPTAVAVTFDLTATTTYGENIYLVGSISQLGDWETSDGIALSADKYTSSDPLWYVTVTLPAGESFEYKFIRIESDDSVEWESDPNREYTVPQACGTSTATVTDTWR

## NCc1cn(CCCN2C[C@@H](O)C(O)[C@H](O)C2)nn1 [compound 15, Deprotected monovalent iminosugar 15]
  IC50: 1100 µM
